In experiment [1] the test system is Citrobacter freundii 1982. Nature of the experiment: Antibacterial activity in vitro (MIC) against Citrobacter freundii 1982. It counts as cell-based. The note with it: read-out: MIC C. freundii 1982. Here is the method: (§1) The minimum inhibitory concentration in vitro (MIC in μg/ml) of a compound of formula I against Citrobacter freundii 1982 and Staphylococcus aureus 887 is measured and compiled in Table 2.

Experiment [2] has as its system Staphylococcus aureus 887. Nature of the experiment: Antibacterial activity in vitro (MIC) against Staphylococcus aureus 887. It counts as cell-based. To be noted: read-out: MIC S. aureus 887. Here is the method: as §1

Structures are written as SMILES. In brackets after ≈: the same amount, converted by molar mass. Counter-ions that a name gives are not always drawn.

As to `O=C(O)C1=C(/C=C2\CCN(CC(F)(F)F)C2=O)C[C@@H]2CN[C@@H]3C(=O)N1[C@H]23` [Example 14, (E)-(1aS,3aR,6bR)-1-Oxo-5-[2-oxo-1-(2,2,2-trifluoro-ethyl)-pyrrolidin-3-ylidenemethyl]-1a,2,3,3a,4,6b-hexahydro-1H-2,6a-diaza-cyclobut[cd]indene-6-carboxylic acid trifluoroacetate (1:1)], the results for the minimal inhibitory concentration (MIC) in experiment [1] and in experiment [2] were 8 µg/mL and 16 µg/mL, respectively.

In the case of `O=C(O)C1=C(/C=C2\CCN(Cc3ccc([N+](=O)[O-])cc3)C2=O)C[C@@H]2CN[C@@H]3C(=O)N1[C@H]23` [Example 15, (E)-(1aS,3aR,6bR)-1-Oxo-5-[2-oxo-1-(4-nitrobenzyl)-pyrrolidin-3-ylidenemethyl]-1a,2,3,3a,4,6b-hexahydro-1H-2,6a-diaza-cyclobut[cd]indene-6-carboxylic acid trifluoroacetate (1:0.77)], the values for the MIC in experiment [1] and in experiment [2] were 32 µg/mL and 8 µg/mL, respectively.

Turning to `O=C(O)C1=C(/C=C2\CCN(Cc3cccs3)C2=O)C[C@@H]2CN[C@@H]3C(=O)N1[C@H]23` [Example 16, (E)-(1aS,3aR,6bR)-1-Oxo-5-[2-oxo-1-(thiophen-2-ylmethyl)-pyrrolidin-3-ylidenemethyl]-1a,2,3,3a,4,6b-hexahydro-1H-2,6a-diaza-cyclobut[cd]indene-6-carboxylic acid trifluoroacetate (1:0.75)], the minimal inhibitory concentration (MIC) (as a rule, the smallest concentration in the dilution series that meets the test's criterion for growth inhibition) was 16 µg/mL in experiment [1] and 8 µg/mL in experiment [2].

Regarding `NC(=O)c1ccc(NC(=O)N2C[C@H]3CC(/C=C4\CCN(CC(F)(F)F)C4=O)=C(C(=O)O)N4C(=O)[C@@H]2[C@@H]34)cc1` [Example 23, (E)-(1aS,3aR,6bR)-2-(4-Carbamoyl-phenylcarbamoyl)-1-oxo-5-[2-oxo-1-(2,2,2-trifluoroethyl)-pyrrolidin-3-ylidenemethyl]-1a,2,3,3a,4,6b-hexahydro-1H-2,6a-diaza-cyclobut[cd]indene-6-carboxylic acid sodium salt (1:1)], the MIC in experiment [1] and in experiment [2] was 16 µg/mL throughout.

As for `CC(=O)N1C[C@H]2CC(/C=C3\CCN(c4ccc(O)cc4)C3=O)=C(C(=O)O)N3C(=O)[C@@H]1[C@@H]23` [Example 24, (E)-(1aS,3aR,6bR)-2-Acetyl-1-oxo-5-[2-oxo-1-(4-hydroxyphenyl)-pyrrolidin-3-ylidenemethyl]-1a,2,3,3a,4,6b-hexahydro-1H-2,6a-diaza-cyclobut[cd]indene-6-carboxylic acid sodium salt (1:1)], the MIC in experiment [1] and in experiment [2] was 1 µg/mL throughout.

`CC(=O)N1C[C@H]2CC(/C=C3\CCN(CC(F)(F)F)C3=O)=C(C(=O)O)N3C(=O)[C@@H]1[C@@H]23` [Example 25, (E)-(1aS,3aR,6bR)-2-Acetyl-1-oxo-5-[2-oxo-1-(2,2,2-trifluoroethyl)-pyrrolidin-3-ylidenemethyl]-1a,2,3,3a,4,6b-hexahydro-1H-2,6a-diaza-cyclobut[cd]indene-6-carboxylic acid sodium salt (1:1)]: the MIC in experiment [1] was 1 µg/mL; in experiment [2], 4 µg/mL.

With `CC(=O)N1C[C@H]2CC(/C=C3\CCN(Cc4ccc([N+](=O)[O-])cc4)C3=O)=C(C(=O)O)N3C(=O)[C@@H]1[C@@H]23` [Example 26, (E)-(1aS,3aR,6bR)-2-Acetyl-1-oxo-5-[2-oxo-1-(4-nitro-benzyl)-pyrrolidin-3-ylidenemethyl]-1a,2,3,3a,4,6b-hexahydro-1H-2,6a-diaza-cyclobut[cd]indene-6-carboxylic acid sodium salt (1:1)], the minimum inhibitory concentration (MIC) in experiment [1] came to 8 µg/mL; in experiment [2], 2 µg/mL.

Take `CC(=O)N1C[C@H]2CC(/C=C3\CCN(Cc4cccs4)C3=O)=C(C(=O)O)N3C(=O)[C@@H]1[C@@H]23` [Example 27, (E)-(1aS,3aR,6bR)-2-Acetyl-1-oxo-5-[2-oxo-1-(thiophen-2-ylmethyl)-pyrrolidin-3-ylidenemethyl]-1a,2,3,3a,4,6b-hexahydro-1H-2,6a-diaza-cyclobut[cd]indene-6-carboxylic acid sodium salt (1:1)]: the figures for the MIC in experiment [1] and in experiment [2] were 4 µg/mL and 2 µg/mL, respectively.

In the case of `CC(=O)N1C[C@H]2CC(/C=C3\CCN(CC(C)C)C3=O)=C(C(=O)O)N3C(=O)[C@@H]1[C@@H]23` [Example 28, (E)-(1aS,3aR,6bR)-2-Acetyl-1-oxo-5-[2-oxo-1-isobutyl-pyrrolidin-3-ylidenemethyl]-1a,2,3,3a,4,6b-hexahydro-1H-2,6a-diaza-cyclobut[cd]indene-6-carboxylic acid sodium salt (1:1)], the minimum inhibitory concentration (MIC) came out at 2 µg/mL in experiment [1] and 8 µg/mL in experiment [2].

Consider `CC(=O)N1C[C@H]2CC(/C=C3\CCN(C4CC4)C3=O)=C(C(=O)O)N3C(=O)[C@@H]1[C@@H]23` [Example 29, (E)-(1aS,3aR,6bR)-2-Acetyl-1-oxo-5-[1-cyclopropyl-2-oxo-pyrrolidin-3-ylidenemethyl]-1a,2,3,3a,4,6b-hexahydro-1H-2,6a-diaza-cyclobut[cd]indene-6-carboxylic acid sodium salt (1:1)], for which the MIC is 1 µg/mL in experiment [1] and 16 µg/mL in experiment [2].

Turning to `CC(=O)N1C[C@H]2CC(/C=C3\CCN(c4cccc([N+](=O)[O-])c4)C3=O)=C(C(=O)O)N3C(=O)[C@@H]1[C@@H]23` [Example 30, (E)-(1aS,3aR,6bR)-2-Acetyl-1-oxo-5-[1-(3-nitrophenyl)-2-oxo-pyrrolidin-3-ylidenemethyl]-1a,2,3,3a,4,6b-hexahydro-1H-2,6a-diaza-cyclobut[cd]indene-6-carboxylic acid sodium salt (1:1)], the minimum inhibitory concentration (MIC) in experiment [1] turned out to be 4 µg/mL; in experiment [2], 1 µg/mL.

`CC(=O)N1C[C@H]2CC(/C=C3\CCN(c4ccccc4)C3=O)=C(C(=O)O)N3C(=O)[C@@H]1[C@@H]23` [Example 31, (E)-(1aS,3aR,6bR)-2-Acetyl-1-oxo-5-[2-oxo-1-phenyl-pyrrolidin-3-ylidenemethyl]-1a,2,3,3a,4,6b-hexahydro-1H-2,6a-diaza-cyclobut[cd]indene-6-carboxylic acid sodium salt (1:1)]: the MIC in experiment [1] was determined as 8 µg/mL; in experiment [2] it was 2 µg/mL.

For `CCOC(=O)N1CCC(N2CC/C(=C\C3=C(C(=O)O)N4C(=O)[C@@H]5[C@H]4[C@H](C3)CN5C(C)=O)C2=O)CC1` [Example 32, (E)-(1aS,3aR,6bR)-2-Acetyl-1-oxo-5-[1-(1-ethoxycarbonyl-piperidin-4-yl)-2-oxo-pyrrolidin-3-ylidenemethyl]-1a,2,3,3a,4,6b-hexahydro-1H-2,6a-diaza-cyclobut[cd]indene-6-carboxylic acid sodium salt (1:1)], the MIC in experiment [1] turned out to be 62 µg/mL; in experiment [2], 8 µg/mL.

For the compound `CC(=O)N1C[C@H]2CC(/C=C3\CCN(c4cccnc4)C3=O)=C(C(=O)O)N3C(=O)[C@@H]1[C@@H]23` [Example 33, (E)-(1aS,3aR,6bR)-2-Acetyl-1-oxo-5-[2-oxo-1-pyridin-3-yl-pyrrolidin-3-ylidenemethyl]-1a,2,3,3a,4,6b-hexahydro-1H-2,6a-diaza-cyclobut[cd]indene-6-carboxylic acid sodium salt (1:1)], the values for the minimal inhibitory concentration (MIC) in experiment [1] and in experiment [2] were 1 µg/mL and 2 µg/mL, respectively.

Take `O=C(O)C1=C(/C=C2\CCN(c3cccc([N+](=O)[O-])c3)C2=O)C[C@@H]2CN(C(=O)C(F)(F)F)[C@@H]3C(=O)N1[C@H]23` [Example 34, (E)-(1aS,3aR,6bR)-1-Oxo-5-[2-oxo-1-(3-nitro-phenyl)-pyrrolidin-3-ylidenemethyl]-2-trifluoroacetyl-1a,2,3,3a,4,6b-hexahydro-1H-2,6a-diaza-cyclobut[cd]indene-6-carboxylic acid sodium salt (1:1)]: the minimal inhibitory concentration (MIC) is 8 µg/mL in experiment [1] and 4 µg/mL in experiment [2].

Regarding `O=C(O)C1=C(/C=C2\CCN(Cc3cccs3)C2=O)C[C@@H]2CN(C(=O)C(F)(F)F)[C@@H]3C(=O)N1[C@H]23` [Example 35, (E)-(1aS,3aR,6bR)-1-Oxo-5-[2-oxo-1-(thiophen-2-yl-methyl)-pyrrolidin-3-ylidenemethyl]-2-trifluoroacetyl-1a,2,3,3a,4,6b-hexahydro-1H-2,6a-diaza-cyclobut[cd]indene-6-carboxylic acid sodium salt (1:1)], the MIC was determined as 32 µg/mL in experiment [1] and 4 µg/mL in experiment [2].

On to `O=C(O)C1=C(/C=C2\CCN(C3CC3)C2=O)C[C@@H]2CN(C(=O)C(F)(F)F)[C@@H]3C(=O)N1[C@H]23` [Example 36, (E)-(1aS,3aR,6bR)-1-Oxo-5-[2-oxo-1-cyclopropyl-pyrrolidin-3-ylidenemethyl]-2-trifluoroacetyl-1a,2,3,3a,4,6b-hexahydro-1H-2,6a-diaza-cyclobut[cd]indene-6-carboxylic acid sodium salt (1:1)], for which the minimal inhibitory concentration (MIC) in experiment [1] is 8 µg/mL; in experiment [2] it was 4 µg/mL.

As to `O=C(O)C1=C(/C=C2\CCN(c3ccccc3)C2=O)C[C@@H]2CN(C(=O)C(F)(F)F)[C@@H]3C(=O)N1[C@H]23` [Example 37, (E)-(1aS,3aR,6bR)-1-Oxo-5-[2-oxo-1-phenyl-pyrrolidin-3-ylidenemethyl]-2-trifluoroacetyl-1a,2,3,3a,4,6b-hexahydro-1H-2,6a-diaza-cyclobut[cd]indene-6-carboxylic acid sodium salt (1:1)], the MIC was 64 µg/mL in experiment [1] and 4 µg/mL in experiment [2].

For the compound `O=C(O)C1=C(/C=C2\CCN(c3cccnc3)C2=O)C[C@@H]2CN(C(=O)C(F)(F)F)[C@@H]3C(=O)N1[C@H]23` [Example 38, (E)-(1aS,3aR,6bR)-1-Oxo-5-[2-oxo-1-pyridin-3-yl-pyrrolidin-3-ylidenemethyl]-2-trifluoroacetyl-1a,2,3,3a,4,6b-hexahydro-1H-2,6a-diaza-cyclobut[cd]indene-6-carboxylic acid sodium salt (1:1)], the minimum inhibitory concentration (MIC) in experiment [1] was found to be 16 µg/mL; in experiment [2] it was 4 µg/mL.

For the compound `CC(=O)N1C[C@H]2CC(/C=C3\CCN(c4ccc[n+](Cc5ccccc5)c4)C3=O)=C(C(=O)[O-])N3C(=O)[C@@H]1[C@@H]23` [Example 39, (E)-(1aS,3aR,6bR)-2-Acetyl-5-[1-(1-benzyl-pyridin-1-ium-3-yl)-2-oxo-pyrrolidin-3-ylidenemethyl]-1-oxo-1a,2,3,3a,4,6b-hexahydro-1H-2,6a-diaza-cyclobut[cd]indene-6-carboxylate acid], the minimum inhibitory concentration (MIC) amounted to 4 µg/mL (≈ 8.02 µM) in experiment [1] and 2 µg/mL (≈ 4.01 µM) in experiment [2].

The values are drawn from patent US6218379A, “Tricyclic carbacephems” (Hoffmann-la Roche Inc., priority 1996, dated 2001).
